Experimental data: patent US10238738B2, “Methods of modulating immune system responses” (priority 2014, dated 2019)

What was measured:
[1] = system: primary human macrophages, neutrophils, and immortalized epithelial cells; test: Cytokine production in primary human cells (ELISA); type: cell-based
Description: (§1) Relative expression was calculated using the 2^−ΔΔCT method following normalization of target gene abundance to GAPDH. Quantitative measurements of cytokines were performed using ELISA kits form R&D Systems (KC, IL-23, IFN-β) or BD Biosciences (IL-1β, IL-8, IL-6, IL-12p70, TNF-α). Nuclear extracts were prepared from Jurkat T cells and NF-κB subunit binding was determined using the TransAM® Transcription Factor ELISA (Active Motif). Microarray
Whole blood was taken by venipuncture from human volunteers. Peripheral blood mononuclear cells (PBMCs) were isolated using Ficoll-Paque (GE). PBMCs (2×10^6 cells/ml) were incubated for one hour at 37° C. to allow monocytes to adhere. Following removal of non-adherent cells, monocytes were re-suspended and incubated for 7 days in RPMI 1640, 10% FBS, 1% glutamax, 1% penicillin streptomycin, containing 100 ng/ml recombinant human Granulocyte macrophage-colony stimulating factor (GM-CSF) (BioLegend). For infections, cells were detached using accutase (Sigma) and seeded at 2×10^5 cells/well in 48 well plates without antibiotics. Human neutrophils were isolated from citrated whole blood taken from healthy volunteers by venipuncture using Ficoll-Paque (GE) as described previously (McCaw et al., 2003).

[2] = system: TIFA expression; test: qRT-PCR of TIFA mRNA levels in Jurkat T cells; type: cell-based, human; conditions: dependent on RelA, FIG. 13
Description: FIG. 13. Shown is qRT-PCR analysis of TIFA mRNA levels in Jurkat T cells treated with HBP, flagellin, or TNFα (after knockdown of the NF-κB subunit ReIA, or treated with a scrambled shRNA (shCtrl).
(§2) RNA was isolated using an RNeasy kit (Qiagen) per manufacturers' protocol. cDNA was synthesized using the iScript cDNA synthesis kit (Bio-Rad) and treated with TURBO DNase (Life Technologies). cDNA was amplified using SsoAdvanced SYBR Green (Bio-Rad) using a C1000 thermal cycler (Bio-Rad). Target genes were amplified using the following primers: […]
as §1

[3] = system: NF-κB dependent genes in Jurkat T cells; test: Microarray, qRT-PCR and NF-κB subunit ELISA in Jurkat T cells; type: cell-based, human; conditions: compared with flagellin or TNFα, FIG. 2b,c
Description: as §2, §1
Two clonal populations of Jurkat cells were stimulated for 2 hr with purified HBP-containing supernatants, or supernatants from M. catarrhalis. RNA was extracted using RNeasy (Qiagen), labeled using Illumina TotalPrep RNA Amplification kit (Ambion) and analyzed on a human HT-12 v4.0 Beadchip (Illumina). Data normalization and analysis were provided as a service by the Bioinformatics Department of the University Health Network (UHN) Micro array Centre, Toronto, ON. Data was analyzed using Genespring v11.0.1. […]

[4] = system: THP-1 macrophages; test: qRT-PCR analysis of THP-1 macrophages treated with synthetic HBP and TLR ligands; type: cell-based, human; conditions: 4 hr, with PAM3CSK4 or flagellin; FIG. 3c
Description: FIG. 3(c), qRT-PCR analysis of THP-1 macrophages treated with synthetic HBP (sHBP), PAM3CSK4 (PAM3), or flagellin (FLAG) for 4 hr, expressed as fold increase relative to untreated after normalization to GAPDH. Data represent ≥3 independent experiments performed in duplicate. All error bars±s.e.m. *P<0.05, **P<0.01 by ANOVA.
THP-1 cells were maintained in RPMI supplemented with 10% FBS and 1% glutamax and differentiated to macrophages with 50 ng/ml PMA for 48 hr, followed by a 48 hr rest period prior to stimulation. […] Results are expressed as fold change compared to untreated.

[5] = target: T1, TIFA (Homo sapiens, UniProt Q96CG3); test: Confocal microscopy of FLAG-TIFA with TRAF6 or Lamp2; type: cell-based
T1 construct: expressed in transfected cells; endogenous TIFA knocked down with a 3' UTR shRNA
T1 sequence (Q96CG3 1-184): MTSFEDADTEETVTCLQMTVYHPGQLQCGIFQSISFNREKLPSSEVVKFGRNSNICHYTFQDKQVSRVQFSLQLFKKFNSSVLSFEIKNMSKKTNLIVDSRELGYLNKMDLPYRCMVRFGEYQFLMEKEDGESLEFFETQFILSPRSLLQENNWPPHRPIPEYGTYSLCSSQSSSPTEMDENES
Description: For visualization of FLAG-TIFA and TRAF6, cells were stained overnight at 4° C. with Alexa Fluor-488 conjugated rabbit anti-FLAG (Cell Signaling) and mouse anti-TRAF6 (sc-8409; Santa Cruz), followed by 1 hour with Alexa Fluor-594 conjugated anti mouse (Life Technologies). For visualization of FLAG-TIFA and Lamp2, cells were stained overnight at 4° C. with mouse anti-FLAG (M2; Sigma) and rabbit anti-Lamp2 (ab37024; Abcam), followed by 1 hour with Alexa Fluor-488 conjugated anti-mouse (Life Technologies) and Alexa Fluor-594 conjugated anti-rabbit (Life Technologies). Slides were visualized using an LSM510 (Carl Zeiss) confocal microscope. For analysis, images were processed using ImageJ software

[6] = system: HIV gene expression from latently-infected cells; test: Latent HIV-1 reporter Jurkat T cell line (RG5), DsRed expression; type: cell-based, human; conditions: FIG. 11B
Description: The full-length HIV-1 molecular clone pLAl containing the following modifications was used as the reporter backbone: Avrll deletion of the 3′ end of Gag and the entire coding sequence of Pol, and a the Ndel/Stul deletion of the 3′ end of Env. The Dsred allele was cloned into the Nef reading frame using BamH1, and Xhol. Lentiviral particles were produced by co-transfection into 293T cells with pMDG.2 and psPAX2. Jurkat cells were transduced with the minimum dose required to see DsRed positive cells following treatment with 10 ng/ml TNFα. 48 hours post transfection, cells were treated HBP, and DsRed positive cells sorted by FACS. Cells were cultured for 14 days followed by DsRed negative cell sorting by FACS. 5 days later, cells were induced with HBP, and DsRed positive cells collected into 96 well plates (0.5 cells/well). Clones were individually tested for low basal DsRed expression, and high DsRed expression following treatment with both HBP and TNFα and termed RG5.
Live cells were re-suspended to 1×10^6 cells/ml in 2% FBS in PBS and analyzed using a FACSCalibur with CellQuest software (Becton Dickinson). Analysis was preformed using FlowJo software (TreeStar). Cell sorting was done using an Aria I cell sorter (Becton Dickinson).

`O=P(O)(O)OC[C@@H](O)[C@H]1OC(OP(=O)(O)O)[C@@H](O)[C@@H](O)[C@@H]1O` (stereo partly drawn) [HBP, D-glycerol-D-manno-heptose-1,7-bisphosphate] was tested, and the “IL-8, IL-6 and TNFα production” value ([1]; 24 hr, FIG. 8a-c) was “induced IL-8, IL-6, and TNFα production”, the “Th17 polarizing cytokines IL-6 and IL-23” value ([1]; primary human macrophages) was “induced significant amounts” and the “Upregulation of TIFA expression” value [2] was “over 5 fold”. For the same compound, the “Kinetics of NF-κB activation and pro-inflammatory transcriptional response” value [3] was “slower, and persisted longer”, the “Activation of THP-1 macrophages in combination with TLR ligands” value [4] was “synergistically activated THP-1 macrophages” and the “TIFA co-localization with TRAF6” value ([5]; 293T cells, 3 hr, FIG. 16b) was “co-localized with TRAF6 in distinct foci”. The “Formation of TIFA aggregates co-localized with Lamp2” value ([5]; 293 cells, 4 hr, FIG. 21) was “induced the formation of large TIFA aggregates” and the “HIV gene expression from latently-infected cells” value [6] was “potently induce HIV gene expression”.
